The values that follow come from patent US10894775B2, “Piperidine derivatives as liver X receptor beta agonists, compositions, and their use” (Merck Sharp & Dohme Corp., priority 2016, dated 2021).

Read-outs that look alike come from different tables or passages of the source.

In assay [1] the target is T1, glutathione-S-transferase (GST) tagged LXRalpha LBD (ligand binding domain) (Homo sapiens, UniProt Q13133).
T1 construct: purchased Invitrogen pv4655
T1 sequence (Q13133 209-447 limits assumed): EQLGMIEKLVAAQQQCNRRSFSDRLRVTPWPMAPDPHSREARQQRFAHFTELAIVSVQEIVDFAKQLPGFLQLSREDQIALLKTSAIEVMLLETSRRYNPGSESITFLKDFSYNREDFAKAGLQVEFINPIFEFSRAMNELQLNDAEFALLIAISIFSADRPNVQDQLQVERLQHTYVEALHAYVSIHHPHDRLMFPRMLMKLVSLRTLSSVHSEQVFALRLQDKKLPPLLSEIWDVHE
Briefly: LanthaScreen TR-FRET Liver X Receptor Coactivator Assay, LXR alpha. It is filed as biochemical. To be noted: for Emax: read-out: LXR alpha actiivty at max dose (%); for EC50 / LXR alpha IP (nM): potency (Inflection Point) of compound-induced co-activator recruitment, TR-FRET. The protocol:
(§1) While running the LanthaScreen™ TR-FRET Liver X Receptor Coactivator Assay, LXR alpha-LBD or LXR beta-LBD was added to ligand test compounds followed by addition of a mixture of a fluorescein-labelled coactivator peptide and terbium-conjugated anti-GST antibody. After an incubation period at room temperature, TR-FRET (time-resolved fluorescence resonance energy transfer) was measured using a filter-based instrument capable of TR-FRET, e.g. PerkinElmer Envision.
For orientation: Time-resolved FRET reads energy transfer from a long-lived donor to a nearby acceptor.

Assay [2] addresses T2, glutathione-S-transferase (GST) tagged LXRbeta LBD (ligand binding domain) (Homo sapiens, UniProt P55055).
T2 construct: purchased Invitrogen pv4658.pps
T2 sequence (P55055 222-460 limits assumed): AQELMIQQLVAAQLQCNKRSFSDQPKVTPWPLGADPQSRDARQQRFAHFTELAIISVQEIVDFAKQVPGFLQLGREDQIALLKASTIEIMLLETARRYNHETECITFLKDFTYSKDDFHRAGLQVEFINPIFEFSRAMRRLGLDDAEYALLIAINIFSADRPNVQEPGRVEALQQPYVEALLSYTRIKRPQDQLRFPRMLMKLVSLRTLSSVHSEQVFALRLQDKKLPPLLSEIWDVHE
Description: LanthaScreen TR-FRET Liver X Receptor Coactivator Assay, LXR beta. It is filed as biochemical. To be noted: for Emax: read-out: LXR beta actiivty at max dose (%); for EC50: potency (Inflection Point) of compound-induced co-activator recruitment, TR-FRET. The protocol:
as §1

[3] abbreviates: efficacy (Emax) in relation to reference dual agonist T0901317.

Take `CN(C)C(=O)c1ccc(N(C)CCC2CC23CCN(C(=O)C(C)(C)c2ccccc2)CC3)cc1Cl` (single isomer, unassigned) [Example 9-1, (S or R)-2-chloro-N,N-dimethyl-4-(methyl(2-(6-(2-methyl-2-phenylpropanoyl)-6-azaspiro[2.5]octan-1-yl)ethyl)amino)benzamide]: the Emax in assay [1] (setting [3]) amounted to 22%; in assay [2] (setting [3]), 80%. Moreover, the results for the EC50 in assay [1] (read-out: LXR alpha IP) and in assay [2] (read-out: LXR beta IP) were 797 nM and 29 nM, respectively.
Regarding `COc1cccc(C(O)(C(=O)N2CCC3(CCC(Nc4ccc(C(=O)N(C)C)c(Cl)c4)CC3)CC2)C(F)(F)F)c1` (single isomer, unassigned) [Example 10-1, 2-chloro-N,N-dimethyl-4-(3-((R or S)-3,3,3-trifluoro-2-hydroxy-2-(3-methoxyphenyl)propanoyl)-3-azaspiro[5.5]undecan-9-ylamino)benzamide], the Emax in assay [1] (setting [3]) was found to be 12%; in assay [2] (setting [3]), 54%. Moreover, the “LXR alpha IP (nM)” value in assay [1] was “No IP”. For the same molecule, the EC50 in assay [2] (read-out: LXR beta IP) worked out at 73 nM.
For the molecule `COc1cccc([C@@](O)(C(=O)N2CCC(CC3CC(Nc4ccc(C(=O)N(C)C)c(Cl)c4)C3)CC2)C(F)(F)F)c1` (single isomer, unassigned) [Example 11-1, 2-chloro-N,N-dimethyl-4-((1R,3s)-3-((1-((R or S)-3,3,3-trifluoro-2-hydroxy-2-(3-methoxyphenyl)propanoyl)piperidin-4-yl)methyl)cyclobutylamino)benzamide], in assay [1], the “LXR alpha IP (nM)” value is “No IP” and the Emax was 12%. The EC50 in assay [2] (read-out: LXR beta IP) stood at 8 nM. Also, in assay [2], the Emax was 85%.
Regarding `CN(C)C(=O)c1ccc(NCCC2CC3(CCN(C(=O)C(O)(c4ccccc4)C(F)(F)F)CC3)C2)cc1Cl` (single isomer, unassigned) [Example 13-1, 2-chloro-N,N-dimethyl-4-(2-(7-((R or S)-3,3,3-trifluoro-2-hydroxy-2-phenylpropanoyl)-7-azaspiro[3.5]nonan-2-yl)ethylamino)benzamide], the Emax in assay [1] (setting [3]) is 39%; in assay [2] (setting [3]) it was 57%. Also, the EC50 in assay [1] (read-out: LXR alpha IP) came to 321 nM; in assay [2] (read-out: LXR beta IP), 6 nM.
On to `CN(C)C(=O)c1ccc(CCCC2CCN(C(=O)C(O)(c3ccccc3)C(F)(F)F)CC2)cc1Cl` (single isomer, unassigned) [Example 15-1, (R or S)-2-chloro-N,N-dimethyl-4-(3-(1-(3,3,3-trifluoro-2-hydroxy-2-phenylpropanoyl)piperidin-4-yl)propyl)benzamide], for which the EC50 turned out to be 1310 nM in assay [1] (LXR alpha IP (nM)) and 46 nM in assay [2] (LXR beta IP (nM)). Also, the figures for the Emax in assay [1] and in assay [2] were 19% and 41%, respectively.
Regarding `CN(C)C(=O)c1ccc(CCCCC2CCN(C(=O)C(O)(c3ccccc3)C(F)(F)F)CC2)cc1Cl` (single isomer, unassigned) [Example 15-2, (R or S)-2-chloro-N,N-dimethyl-4-(4-(1-(3,3,3-trifluoro-2-hydroxy-2-phenylpropanoyl)piperidin-4-yl)butyl)benzamide], the Emax in assay [1] (setting [3]) turned out to be 20%. Also, the EC50 in assay [1] (read-out: LXR alpha IP) worked out at 623 nM; in assay [2] (read-out: LXR beta IP) it was 28 nM. Further, in assay [2] (setting [3]), the “LXR beta actiivty at max dose (%)” value is on record as 95%.
Consider `CN(C)C(=O)c1ccc(CCCCC2CCN(C(=O)C(O)(c3ccccc3)C(F)(F)F)CC2)cc1Cl` (single isomer, unassigned) [Example 15-3, (S or R)-2-chloro-N,N-dimethyl-4-(4-(1-(3,3,3-trifluoro-2-hydroxy-2-phenylpropanoyl)piperidin-4-yl)butyl)benzamide], for which the “LXR alpha actiivty at max dose (%)” value in assay [1] (setting [3]) was 36%. Besides, the EC50 in assay [1] (read-out: LXR alpha IP) was 846 nM; in assay [2] (read-out: LXR beta IP), 31 nM. Moreover, the “LXR beta actiivty at max dose (%)” value in assay [2] (setting [3]) worked out at 116%.
For the molecule `COc1cccc(C(O)(C(=O)N2CCC(CCCCCc3ccc(C(=O)N(C)C)c(Cl)c3)CC2)C(F)(F)F)c1` (single isomer, unassigned) [Example 15-5, (R or S)-2-chloro-N,N-dimethyl-4-(5-(1-(3,3,3-trifluoro-2-hydroxy-2-(3-methoxyphenyl)propanoyl)piperidin-4-yl)pentyl)benzamide], the Emax in assay [1] (setting [3]) worked out at 22%; in assay [2] (setting [3]) it was 75%. In addition, the EC50 in assay [1] (read-out: LXR alpha IP) turned out to be 516 nM; in assay [2] (read-out: LXR beta IP), 16 nM.
As for `CNC(=O)c1ccc(CCCCCC2CCN(C(=O)C(O)(c3cccc(OC)c3)C(F)(F)F)CC2)cc1Cl` (single isomer, unassigned) [Example 15-6, (R or S)-2-chloro-N-methyl-4-(5-(1-(3,3,3-trifluoro-2-hydroxy-2-(3-methoxyphenyl)propanoyl)piperidin-4-yl)pentyl)benzamide], the Emax in assay [1] (setting [3]) was 27%; in assay [2] (setting [3]), 96%. In addition, the EC50 in assay [1] (read-out: LXR alpha IP) is 381 nM; in assay [2] (read-out: LXR beta IP), 6 nM.
`CNC(=O)c1ccc(CCCCCC2CCN(C(=O)C(O)(c3ccccc3)C(F)(F)F)CC2)cc1Cl` (single isomer, unassigned) [Example 15-7, (R or S)-2-chloro-N-methyl-4-(5-(1-(3,3,3-trifluoro-2-hydroxy-2-phenylpropanoyl)piperidin-4-yl)pentyl)benzamide]: the Emax in assay [1] (setting [3]) turned out to be 40%; in assay [2] (setting [3]), 93%. The EC50 came to 327 nM in assay [1] (read-out: LXR alpha IP) and 6 nM in assay [2] (read-out: LXR beta IP).
Turning to `CN(C)C(=O)c1ccc(CCCCCC2CCN(C(=O)C(O)(c3ccccc3)C(F)(F)F)CC2)cc1Cl` (single isomer, unassigned) [Example 15-8, (R or S)-2-chloro-N,N-dimethyl-4-(5-(1-(3,3,3-trifluoro-2-hydroxy-2-phenylpropanoyl)piperidin-4-yl)pentyl)benzamide], the “LXR alpha actiivty at max dose (%)” value in assay [1] (setting [3]) turned out to be 29%. The EC50 in assay [1] (read-out: LXR alpha IP) was found to be 236 nM; in assay [2] (read-out: LXR beta IP), 9 nM. In addition, the Emax in assay [2] (setting [3]) was found to be 79%.
In the case of `CN(C)C(=O)c1ccc(CCCCCC2CCN(C(=O)C(O)(c3ccccc3)C(F)(F)F)CC2)cc1Cl` (single isomer, unassigned) [Example 15-9, (S or R)-2-chloro-N,N-dimethyl-4-(5-(1-(3,3,3-trifluoro-2-hydroxy-2-phenylpropanoyl)piperidin-4-yl)pentyl)benzamide], the “LXR alpha actiivty at max dose (%)” value in assay [1] (setting [3]) is on record as 4%. For the same molecule, the “LXR alpha IP (nM)” value in assay [1] was “No IP”. For the same molecule, in assay [2] (setting [3]), the “LXR beta actiivty at max dose (%)” value came out at 84%. Also, the EC50 in assay [2] (read-out: LXR beta IP) came out at 240 nM.
In the case of `COc1cccc([C@@](O)(C(=O)N2CCC3(CC2)CC(CCCc2ccc(C(=O)N(C)C)c(Cl)c2)C3)C(F)(F)F)c1` (single isomer, unassigned) [Example 16-1, 2-chloro-N,N-dimethyl-4-(3-(7-((R or S)-3,3,3-trifluoro-2-hydroxy-2-(3-methoxyphenyl)propanoyl)-7-azaspiro 13.51 nonan-2-yl)propyl)benzamide], the values for the EC50 in assay [1] (LXR alpha IP (nM)) and in assay [2] (LXR beta IP (nM)) were 1540 nM and 132 nM, respectively. The Emax in assay [1] is 19%; in assay [2], 100%.
`CN(C)C(=O)c1ccc(CCCC2CC3(CCN(C(=O)C(O)(c4ccccc4)C(F)(F)F)CC3)C2)cc1Cl` (single isomer, unassigned) [Example 16-2, 2-chloro-N,N-dimethyl-4-(3-(7-((R or S)-3,3,3-trifluoro-2-hydroxy-2-phenylpropanoyl)-7-azaspiro[3.5]nonan-2-yl)propyl)benzamide]: the Emax worked out at 29% in assay [1] (setting [3]) and 113% in assay [2] (setting [3]). The EC50 in assay [1] (read-out: LXR alpha IP) was 772 nM; in assay [2] (read-out: LXR beta IP) it was 59 nM.
Turning to `CN(C)C(=O)c1ccc(CCCC2CC3(CCN(C(=O)C(O)(c4cccc(OC(F)(F)F)c4)C(F)(F)F)CC3)C2)cc1Cl` (single isomer, unassigned) [Example 16-4, 2-chloro-N,N-dimethyl-4-(3-(7-((S or R)-3,3,3-trifluoro-2-hydroxy-2-(3-(trifluoromethoxy)phenyl)propanoyl)-7-azaspiro[3.5]nonan-2-yl)propyl)benzamide], the Emax came out at 8% in assay [1] (setting [3]) and 96% in assay [2] (setting [3]). Also, in assay [1], the “LXR alpha IP (nM)” value was “No IP”. For the same molecule, in assay [2] (read-out: LXR beta IP), the EC50 is 58 nM.
The like results for `COc1cccc([C@@](O)(C(=O)N2CCC3(CC2)C[C@H]3CCCc2ccc(C(=O)N(C)C)c(Cl)c2)C(F)(F)F)c1` (single isomer, unassigned) [Example 17-1, 2-chloro-N,N-dimethyl-4-(3-((R or S)-6-((R or S)-3,3,3-trifluoro-2-hydroxy-2-(3-methoxyphenyl)propanoyl)-6-azaspiro[2.5]octan-1-yl)propyl)benzamide] were, in that order, 0%, 51%, “No IP” and 12 nM.
